The series can be described thus: Timolol concentration of the aqueous humor after ophthalmic administration, collected with the bodily fluid-collecting device (LC/MS/MS). The class given is in vivo. The conditions noted are these: rabbit; single 40 μl ophthalmic dose of 0.5% timolol maleate sustained ophthalmic solution; aqueous humor 4 hours after administration; Method 1 (0.25, 0.5, 1, 2, 4 h) vs Method 2 (4 h only); FIG. 6. The method, then: Using a micropipette, a 0.5% timolol maleate sustained ophthalmic solution (produced by Santen Pharmaceutical Co., Ltd., Timoptol (registered trademark) XE ophthalmic solution 0.5%) was administered as a single dose of 40 μl near the upper portion of the bulbar conjunctiva of rabbit eyeballs retained using a retention can. The administration was performed on both eyes. A rabbit was retained using a retention can. 30 μl of a 10-fold diluted solution (dilution medium: physiological saline) of a 0.4% oxybuprocaine hydrochloride ophthalmic solution (produced by Santen Pharmaceutical Co., Ltd., Benoxil (registered trademark) ophthalmic solution 0.4%) was ophthalmically administered to the retained rabbit, and local anesthesia was applied. After gently stimulating the cornea with the tip of tweezers and confirming the disappearance of the corneal reflex, a lid retractor was attached. In the Example, a device with a 20-μl capillary attached to a 34 G injection needle was used as the bodily fluid-collecting device. After retaining the eyeball by sandwiching the upper bulbar conjunctiva with tweezers, the needle tip of the bodily fluid-collecting device was inserted into the anterior chamber via the cornea by two-step puncture while checking the curved surface of the cornea. […] After deproteinizing each sample, the timolol concentration of the aqueous humor was measured using the LC/MS/MS method.

Counter-ions that a name gives are not always drawn.

As for `CC(C)(C)NC[C@H](O)COc1nsnc1N1CCOCC1` [timolol, timolol maleate], the “timolol concentration of the aqueous humor at the final collection (Method 1, repeated collection from the same eye) compared with one-point collection (Method 2)” value was “equivalent”.

Source of the values: US12137885B2, “Bodily fluid collection device” (SENJU PHARMACEUTICAL CO., LTD., priority 2020, dated 2024).
